Entries after “also recorded” stand apart in the source; their conditions may differ.
What was measured:
[1] = tested on: RAD51 foci; test: RAD51 nuclear foci by immunofluorescence in FFPE PDX tumors; type: in vivo, mice
Description: (§1) The following primary antibodies were used for immunofluorescence: rabbit anti-RAD51 (Santa Cruz Biotechnology H-92, dilution 1:250), rabbit anti-RAD51 Ab from Cell Signalling Technologies (CST #8875, dilution 1:25 from a 83 μg/ml stock), rabbit anti-RAD51 Ab from Abcam (ab-133534, dilution 1:1000), mouse anti-Geminin (NovoCastra NCL-L, 1:100 in PDX samples, 1:60 in patient samples), rabbit anti-Geminin (ProteinTech 10802-1-AP, 1:400), mouse anti-BRCA1 (Santa Cruz Biotechnology D-9, 1:50 for C-term; or Abcam MS110, 1:200 for N-term), and mouse anti-γH2AX (Millipore JBW301, 1:200). The secondary antibodies used were: goat anti-rabbit Alexa fluor 568 (Invitrogen; 1:500), goat anti-mouse Alexa fluor 488 (Invitrogen; 1:500), goat anti-mouse Alexa fluor 568 (Invitrogen; 1:500) and goat anti-rabbit Alexa fluor 488 (Invitrogen; 1:500).
(§2) Thin tissue sections were deparaffinized with xylene and hydrated with decreasing concentrations of ethanol. […]
(§3) RAD51 was quantified by scoring: a) the percentage of tumor cells with RAD51 nuclear foci, b) the percentage of γH2AX foci positive cells with RAD51 foci, or c) the percentage of geminin positive cells with RAD51 foci, as indicated in the Figures. […] Optimally, one-hundred geminin or γH2AX foci-positive cells from at least 3 different and representative areas of each sample were analyzed. […]

[2] = tested on: γH2AX foci; test: γH2AX nuclear foci by immunofluorescence in FFPE PDX tumors; type: in vivo, mice
Description: as §1, §2, §3

[3] = tested on: patient-derived tumor xenografts (PDXs) of breast, ovarian and pancreatic cancer; test: In vivo PDX sensitivity to PARPi (antitumor activity by RECIST on % tumor volume change); design: species or system mice
Description: Fresh tumor samples from patients with breast or high-grade serous ovarian cancer were prospectively collected for implantation into nude mice under protocols approved by Vall Hebron's institutional review board (IRB), Institut Curie or Institut Paoli-Calmettes. Experiments were conducted following the European Union's animal care directive (2010/63/EU) and were approved by the Ethical Committee of Animal Experimentation of the Vall d'Hebron Research Institute (Barcelona, Spain) or by the Ethical Committee of Animal Experimentation CEEA-51 (Evry, France). Fresh primary or metastatic human tumors were obtained from patients at time of surgery or biopsy and immediately implanted into the mammary fat pad (surgery samples) or the lower flank (metastatic samples) of 6-week-old female athymic HsdCpb:NMRI-Foxnlnu mice (Harlan Laboratories). Animals were continuously supplemented with 1 μM 17b-estradiol (Sigma-Aldrich) in their drinking water. Upon growth of the engrafted tumors, the model was perpetuated by serial transplantation onto the lower flank. In each passage, flash-frozen and formalin-fixed paraffin embedded (FFPE) samples were taken for genotyping and histological studies.
To evaluate the sensitivity to PARP inhibition, tumor-bearing mice were equally distributed into treatment groups of 5 to 10 mice with tumors ranging 70 to 300 mm3. Olaparib 50 mg/kg or 100 mg/kg, Niraparib 75 mg/kg or 50 mg/kg, or Veliparib 100 mg/kg were administered per gavage (p.o.) daily (in 10% v/v DMSO/10% w/v Kleptose [HP-β-CD]). Tumor growth was measured with caliper bi-weekly from first day of treatment to day 21 and every 7-10 days in the acquired resistance setting. To generate PDX models with acquired resistance to PARPi, olaparib treatment was maintained for up to 150 days in olaparib-sensitive tumors until individual tumors regrew. In all experiments, mouse weight was recorded twice weekly. The tumor volume was calculated as V=4π/3/Lx12, “L” being the largest diameter and “1” the smallest. Mice were euthanized when tumors reached 1500 mm3 or in case of severe weight loss, in accordance with institutional guidelines. The antitumor activity was determined by comparing tumor volume at 21 days to its baseline: % tumor volume change=(V21 days−Vinitial)/Vinitial×100. For olaparib-sensitive PDX, the best response was defined as the minimum value of % tumor volume change sustained for at least 10 days. To classify the antitumor response, the Response Evaluation Criteria In Solid Tumors (RECIST) criteria on the % tumor volume change was followed: CR (complete response), best response<−95%; PR (partial response), −95<best response<−30%; SD (stable disease), −30%<best response<+20%, PD (progressive disease), best response>+20%.

**Q.** What does the source list for `O=C(c1cc(Cc2n[nH]c(=O)c3ccccc23)ccc1F)N1CCN(C(=O)C2CC2)CC1` [olaparib]?
**A.** percentage of RAD51 foci/geminin-positive cells (RAD51 score) ([1]; olaparib-treated samples from resistant PDX models (FIG. 2C)): significantly increased; RAD51 foci formation, percentage of tumor cells with RAD51 nuclear foci ([1]; treated vs vehicle, olaparib-resistant PDX models (FIG. 2A)): increased; also recorded: only significantly induced in the olaparib resistant PDX models; γH2AX foci formation, percentage of tumor cells with γH2AX nuclear foci ([2]; treated vs vehicle PDX tumors, sensitive and resistant groups (FIG. 2A)): increased; also recorded: induces; γH2AX foci formation in geminin-positive cells ([2]; treated vs vehicle, both sensitive and resistant tumors (FIG. 2B)): increased; also recorded: significantly increases; number of PDX models in which treatment exhibited antitumor activity as assessed by RECIST ([3]; of 44 PDX models (39 BrC, 3 HGSOC/OvC, 2 PaC), p.o. daily, CR/PR/SD): ten; number of PDX models with complete response (CR) ([3]; of 44 PDX models, CR: best response <-95% tumor volume change): 6; number of PDX models with progressive disease (PD), olaparib-resistant ([3]; of 44 PDX models, PD: best response >+20%): 34; number of PDX models with partial response (PR) ([3]; of 44 PDX models, PR: -95<best response<-30%): 2

From US12007393B2, “Methods based on the detection of RAD51 foci in tumor cells” (Fundació Privada Institut D'Investigació Oncològica De Vall …, priority 2017, dated 2024)
